Reference: US10028966B2 (Avalyn Pharma Inc., priority 2014, dated 2018)
In brackets after ≈: the same amount, converted by molar mass. Marks after values point to notes of the source that are not given here.

Tests used:
[1] = Co-solvent and surfactant effects on pirfenidone saturation solubility; assay type: physicochemical; details: thermodynamic from solid;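 note: samples equilibrated by overnight agitation at ambient temperature, with solubility taken from the supernatant after undissolved solid was removed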
Protocol: Each sample was agitated at ambient temperature overnight. The samples were visually inspected and appearance recorded. Samples were centrifuged to sediment any un-dissolved material and the supernatant withdrawn via syringe through a 0.22 μm PVDF filter. […] The remaining filtered sample was split into three equal volumes in glass vials and placed at 25° C./60 RH, 40° C./75 RH and refrigeration. Samples are wrapped in aluminum foil to reduce light exposure. After the first night of incubation, samples are briefly visually inspected for any signs of discoloration or precipitate formation.

[2] = Osmolality determination and nebulization for taste testing, throat irritation and cough response; details: for Cough Response? / Throat Irritation?: nebulized
Excerpt: Selected formulations were subjected to osmolality determination and nebulization for taste testing and throat irritation and or cough response.

[3] = Stability assessment of pirfenidone formulations at 25°C/60% RH and 40°C/75% RH; assay type: physicochemical; details: 25° C./60% RH, target 1 mg/mL
[4] = 43.7 mg/mL pirfenidone, 8% EtOH, 16% PG, 0 mM sodium saccharin, 76% phosphate buffer (5 mM), pH 7.0
[5] = 43.7 mg/mL pirfenidone, 8% EtOH, 16% PG, 0.3 mM sodium saccharin, 76% phosphate buffer (5 mM), pH 7.0
[6] = 27.2 mg/mL pirfenidone, 4% EtOH, 8% PG, 88% phosphate buffer (5 mM), pH 6.6
[7] = 34.7 mg/mL pirfenidone, 6% EtOH, 12% PG, 82% phosphate buffer (5 mM), pH 7.0
[8] = 5 mM phosphate buffer pH 6.5 plus 1% (v/v) EtOH, 2% (v/v) PG

For Cc1ccc(=O)n(-c2ccccc2)c1 [pirfenidone, 5-methyl-1-phenyl-2-(1H)-pyridone], the solubility ([1]; aqueous co-solvent/surfactant solvent system, pH 4.4, aqueous with cosolvent or surfactant or cyclodextrin, 4% Gly, 0.04% PS80, 96.0% citrate buffer (10 mM), pH 4.4) was 17.6 mg/mL (≈ 95 mM), the solubility ([1]; aqueous co-solvent/surfactant solvent system, pH 4.5, aqueous with cosolvent or surfactant or cyclodextrin, 4% EtOH, 0.04% PS80, 96.0% citrate buffer (10 mM), pH 4.5) was 21.9 mg/mL (≈ 118 mM) and the solubility ([1]; aqueous co-solvent/surfactant solvent system, pH 4.5, aqueous with cosolvent or surfactant or cyclodextrin, 4% EtOH, 0.1% CPB, 95.9% citrate buffer (10 mM), pH 4.5) was 20.4 mg/mL (≈ 110 mM). The solubility ([1]; aqueous co-solvent/surfactant solvent system, pH 4.5, aqueous with cosolvent or surfactant or cyclodextrin, 8% PG, 0.04% PS80, 92.0% citrate buffer (10 mM), pH 4.5) was 23.2 mg/mL (≈ 125 mM), the solubility ([1]; aqueous co-solvent/surfactant solvent system, pH 4.5, aqueous with cosolvent or surfactant or cyclodextrin, 8% PG, 0.1% CPB, 91.9% citrate buffer (10 mM), pH 4.5) was 21 mg/mL (≈ 113 mM) and the solubility ([1]; aqueous co-solvent/surfactant solvent system, pH 4.6, aqueous with cosolvent or surfactant or cyclodextrin, 8% PG, 0.04% PS80, 92.0% water, pH 4.6) was 23.4 mg/mL (≈ 126 mM). The solubility ([1]; aqueous co-solvent/surfactant solvent system, pH 4.7, aqueous with cosolvent or surfactant or cyclodextrin, 4% EtOH, 0.04% PS80, 96.0% water, pH 4.7) was 22.5 mg/mL (≈ 121 mM), the solubility ([1]; aqueous co-solvent/surfactant solvent system, pH 4.9, aqueous with cosolvent or surfactant or cyclodextrin, 4% EtOH, 0.1% CPB, 95.9% water, pH 4.9) was 20.2 mg/mL (≈ 109 mM) and the solubility ([1]; aqueous co-solvent/surfactant solvent system, pH 4.9, aqueous with cosolvent or surfactant or cyclodextrin, 4% Gly, 0.04% PS80, 96.0% water, pH 4.9) was 20 mg/mL (≈ 108 mM). It also gave a solubility ([1]; aqueous co-solvent/surfactant solvent system, pH 5, aqueous with cosolvent or surfactant or cyclodextrin, 8% PG, 0.1% CPB, 91.9% water, pH 5.0) of 22.3 mg/mL (≈ 120 mM), a solubility ([1]; aqueous co-solvent/surfactant solvent system, pH 5.8, aqueous with cosolvent or surfactant or cyclodextrin, 4% EtOH, 8% PG, 0.04% PS80, 88.0% water, pH 5.8) of 28.9 mg/mL (≈ 156 mM) and a solubility ([1]; aqueous co-solvent/surfactant solvent system, pH 6.1, aqueous with cosolvent or surfactant or cyclodextrin, 4% EtOH, 0.1% CPB, 95.9% water, pH 6.1) of 23.9 mg/mL (≈ 129 mM). The solubility ([1]; aqueous co-solvent/surfactant solvent system, pH 6.2, aqueous with cosolvent or surfactant or cyclodextrin, 0.1% CPB, 99.9% water, pH 6.2) was 20 mg/mL (≈ 108 mM), the solubility ([1]; aqueous co-solvent/surfactant solvent system, pH 6.2, aqueous with cosolvent or surfactant or cyclodextrin, 4% EtOH, 8% PG, 88.0% water, pH 6.2) was 30 mg/mL (≈ 162 mM) and the solubility ([1]; aqueous co-solvent/surfactant solvent system, pH 6.2, aqueous with cosolvent or surfactant or cyclodextrin, 8% PG, 0.1% CPB, 91.9% water, pH 6.2) was 23.4 mg/mL (≈ 126 mM). It also gave a solubility ([1]; aqueous co-solvent/surfactant solvent system, pH 6.5, aqueous with cosolvent or surfactant or cyclodextrin, 0.04% PS80, 100.0% water, pH 6.5) of 19.9 mg/mL (≈ 107 mM), a solubility ([1]; aqueous co-solvent/surfactant solvent system, pH 6.5, aqueous with cosolvent or surfactant or cyclodextrin, 4% Gly, 0.04% PS80, 96.0% water, pH 6.5) of 20.2 mg/mL (≈ 109 mM) and a solubility ([1]; aqueous co-solvent/surfactant solvent system, pH 6.6, aqueous with cosolvent or surfactant or cyclodextrin, 4% EtOH, 8% PG, 0.04% PS80, 88.0% phosphate buffer (5 mM), pH 6.6) of 29.4 mg/mL (≈ 159 mM). For the same molecule, the solubility ([1]; aqueous co-solvent/surfactant solvent system, pH 6.6, aqueous with cosolvent or surfactant or cyclodextrin, 4% EtOH, 8% PG, 88.0% phosphate buffer (5 mM), pH 6.6) was 27.2 mg/mL (≈ 147 mM), the solubility ([1]; aqueous co-solvent/surfactant solvent system, pH 6.6, aqueous with cosolvent or surfactant or cyclodextrin, 8% EtOH, 0% PG, 92% phosphate buffer (5 mM), pH 6.6) was 26.7 mg/mL (≈ 144 mM) and the solubility ([1]; aqueous co-solvent/surfactant solvent system, pH 6.6, aqueous with cosolvent or surfactant or cyclodextrin, 8% PG, 0.04% PS80, 92.0% water, pH 6.6) was 23.2 mg/mL (≈ 125 mM). It also gave a solubility ([1]; aqueous co-solvent/surfactant solvent system, pH 6.7, aqueous with cosolvent or surfactant or cyclodextrin, 4% EtOH, 0.04% PS80, 96.0% water, pH 6.7) of 24.5 mg/mL (≈ 132 mM), a solubility ([1]; aqueous co-solvent/surfactant solvent system, pH 6.7, aqueous with cosolvent or surfactant or cyclodextrin, 8% EtOH, 12% PG, 80% phosphate buffer (5 mM), pH 6.7) of 37.7 mg/mL (≈ 204 mM) and a solubility ([1]; aqueous co-solvent/surfactant solvent system, pH 6.8, aqueous with cosolvent or surfactant or cyclodextrin, 0% EtOH, 16% PG, 84% phosphate buffer (5 mM), pH 6.8) of 29.3 mg/mL (≈ 158 mM). The solubility ([1]; aqueous co-solvent/surfactant solvent system, pH 6.8, aqueous with cosolvent or surfactant or cyclodextrin, 2% EtOH, 16% PG, 82% phosphate buffer (5 mM), pH 6.8) was 31 mg/mL (≈ 167 mM), the solubility ([1]; aqueous co-solvent/surfactant solvent system, pH 6.8, aqueous with cosolvent or surfactant or cyclodextrin, 8% EtOH, 4% PG, 88% phosphate buffer (5 mM), pH 6.8) was 30.4 mg/mL (≈ 164 mM) and the solubility ([1]; aqueous co-solvent/surfactant solvent system, pH 6.8, aqueous with cosolvent or surfactant or cyclodextrin, 8% EtOH, 8% PG, 84% phosphate buffer (5 mM), pH 6.8) was 35 mg/mL (≈ 189 mM). The solubility ([1]; aqueous co-solvent/surfactant solvent system, pH 6.8, aqueous with cosolvent or surfactant or cyclodextrin, 8% EtOH, 16% PG, 76% phosphate buffer (5 mM), pH 6.8) was 45.4 mg/mL (≈ 245 mM), the solubility ([1]; aqueous co-solvent/surfactant solvent system, pH 6.9, aqueous with cosolvent or surfactant or cyclodextrin, 4% EtOH, 16% PG, 80% phosphate buffer (5 mM), pH 6.9) was 36.8 mg/mL (≈ 199 mM) and the solubility ([1]; aqueous co-solvent/surfactant solvent system, pH 6.9, aqueous with cosolvent or surfactant or cyclodextrin, 6% EtOH, 16% PG, 78% phosphate buffer (5 mM), pH 6.9) was 40.9 mg/mL (≈ 221 mM). It also gave a solubility ([1]; aqueous co-solvent/surfactant solvent system, pH 7, aqueous with cosolvent or surfactant or cyclodextrin, 6% EtOH, 12% PG, 82.0% phosphate buffer (5 mM), pH 7.0) of 34.7 mg/mL (≈ 187 mM), a solubility ([1]; aqueous co-solvent/surfactant solvent system, pH 7, aqueous with cosolvent or surfactant or cyclodextrin, 8% EtOH, 16% PG, 76.0% phosphate buffer (5 mM), pH 7.0) of 43.7 mg/mL (≈ 236 mM) and a solubility ([1]; citrate buffer with co-solvent, pH 4.4, aqueous buffer, 4% Gly, 96.0% citrate buffer (10 mM), pH 4.4) of 19.8 mg/mL (≈ 107 mM). For the same molecule, the solubility ([1]; citrate buffer with co-solvent, pH 4.4, aqueous with cosolvent or surfactant or cyclodextrin, 8% PG, 92.0% citrate buffer (10 mM), pH 4.4) was 23.2 mg/mL (≈ 125 mM), the solubility ([1]; citrate buffer with co-solvent, pH 4.5, aqueous buffer, 4% EtOH, 96.0% citrate buffer (10 mM), pH 4.5) was 22.3 mg/mL (≈ 120 mM) and the solubility ([1]; citrate buffer with surfactant, pH 4.5, aqueous with cosolvent or surfactant or cyclodextrin, 0.04% PS80, 100.0% citrate buffer (10 mM), pH 4.5) was 19.1 mg/mL (≈ 103 mM). For the same molecule, the solubility ([1]; water with co-solvent, pH 4.8, water, 4% Gly, 96.0% water, pH 4.8) was 20.1 mg/mL (≈ 109 mM), the solubility ([1]; water with co-solvent, pH 5, aqueous with cosolvent or surfactant or cyclodextrin, 8% PG, 92.0% water, pH 5.0) was 24.3 mg/mL (≈ 131 mM) and the solubility ([1]; water with co-solvent, pH 5, water, 4% EtOH, 96.0% water, pH 5.0) was 22.8 mg/mL (≈ 123 mM). For the same molecule, the solubility ([1]; water with co-solvent, pH 6.7, water, 4% Gly, 96.0% water, pH 6.7) was 20.1 mg/mL (≈ 109 mM), the solubility ([1]; water with co-solvent, pH 6.8, aqueous with cosolvent or surfactant or cyclodextrin, 8% PG, 92.0% water, pH 6.8) was 24.6 mg/mL (≈ 133 mM) and the solubility ([1]; water with co-solvent, pH 6.9, water, 4% EtOH, 96.0% water, pH 6.9) was 24.3 mg/mL (≈ 131 mM). The solubility ([1]; water with surfactant, pH 4.8, aqueous with cosolvent or surfactant or cyclodextrin, 0.04% PS80, 100.0% water, pH 4.8) was 8.3 mg/mL (≈ 44.8 mM), the Osmolality [2, 4] was 3672 mOsmo/Kg and the Osmolality [2, 5] was 3672 mOsmo/Kg. The Osmolality ([2]; calculated, 27.2 mg/mL pirfenidone, 4% EtOH, 8% PG, 88% phosphate buffer (5 mM), pH 6.6) was ~1830* mOsmo/Kg, the Osmolality ([2]; calculated, 34.7 mg/mL pirfenidone, 6% EtOH, 12% PG, 82% phosphate buffer (5 mM), pH 7.0) was ~2750* mOsmo/Kg and the “Cough Response?” value [2, 6] was “No”. The “Throat Irritation?” value [2, 6] was “No”, the “Cough Response?” value [2, 7] was “No” and the “Throat Irritation?” value [2, 7] was “No”. The “Cough Response?” value [2, 4] was “No”, the “Throat Irritation?” value [2, 4] was “No” and the “Cough Response?” value [2, 5] was “No”. For the same molecule, the “Throat Irritation?” value [2, 5] was “No”, the “Pirfenidone at Time = 0” value [3, 8] was 1.0 mg/mL and the “Pirfenidone at Time = 1 month” value [3, 8] was 1.0 mg/mL. For the same molecule, the “Pirfenidone at Time = 3 month” value [3, 8] was 1.0 mg/mL, the “Pirfenidone at Time = 6 month” value [3, 8] was 1.0 mg/mL and the “Pirfenidone at Time = 0” value ([3]; 5 mM phosphate buffer pH 6.5 plus 8% (v/v) EtOH, 16% (v/v) PG) was 1.0 mg/mL.
